The NIST ThermoML archive (doi:10.1021/je049787p)
± gives the expanded uncertainty stated by the source.

Test: xn = mol fraction of the nth substance listed
Settings: 101.3 kPa, Liquid; for electrical conductivity: Alternating current cell with electrodes

C=CCn1cc[n+](C)c1.[Cl-] [1-allyl-3-methylimidazolium chloride] + CCO
Settings | electrical conductivity, 293.15 K [S/m] | electrical conductivity, 303.15 K [S/m] | electrical conductivity, 313.15 K [S/m] | electrical conductivity, 323.15 K [S/m] | electrical conductivity, 333.15 K [S/m] | viscosity, 293.15 K [mPa·s] | viscosity, 303.15 K [mPa·s] | viscosity, 313.15 K [mPa·s] | viscosity, 323.15 K [mPa·s] | viscosity, 333.15 K [mPa·s]
x2 = 0 | 0.382 | 0.44 | 0.501 | 0.562 | 0.624 | 66 ± 10 | 44.7 ± 5.9 | 25.3 ± 3.5 | 20.6 ± 2.8 | 16.2 ± 2.3
x2 = 0.1 | 0.485 | 0.543 | 0.604 | 0.66 | 0.722 | 54.6 ± 3 | 44.1 ± 5.8 | 24.6 ± 3.4 | 20 ± 2.8 | 16 ± 2.3
x2 = 0.2 | 0.627 | 0.682 | 0.74 | 0.801 | 0.859 | 45.7 ± 6 | 42.2 ± 5.5 | 24.1 ± 3.3 | 19.5 ± 2.7 | 15.4 ± 2.2
x2 = 0.3 | 0.703 | 0.759 | 0.818 | 0.876 | 0.935 | 39.1 ± 5.1 | 30.9 ± 4.1 | 22.6 ± 3.1 | 18.7 ± 2.6 | 15.1 ± 2.1
x2 = 0.35 | 0.8 | 0.855 | 0.91 | 0.969 | 1.02 | 30.5 ± 4.1 | 25.1 ± 3.4 | 19.4 ± 2.7 | 16 ± 2.2 | 14.4 ± 2
x2 = 0.45 | 0.884 | 0.943 | 0.999 | 1.06 | 1.11 | 26.4 ± 3.5 | 22.1 ± 3 | 20.1 ± 2.8 | 16.7 ± 2.3 | 13.1 ± 1.9
x2 = 0.5 | 0.952 | 1.01 | 1.06 | 1.11 | 1.17 | 23.2 ± 3.1 | 18.1 ± 2.5 | 15.3 ± 2.2 | 13.6 ± 1.9 | 11.2 ± 1.6
x2 = 0.55 | 1.03 | 1.09 | 1.14 | 1.2 | 1.25 | 20.4 ± 2.8 | 16.3 ± 2.3 | 14 ± 2 | 12.5 ± 1.8 | 10.1 ± 1.5

C=CCn1cc[n+](C)c1.[Cl-] [1-allyl-3-methylimidazolium chloride] + O
Settings | electrical conductivity, 293.15 K [S/m] | electrical conductivity, 303.15 K [S/m] | electrical conductivity, 313.15 K [S/m] | electrical conductivity, 323.15 K [S/m] | electrical conductivity, 333.15 K [S/m] | viscosity, 293.15 K [mPa·s] | viscosity, 303.15 K [mPa·s] | viscosity, 313.15 K [mPa·s] | viscosity, 323.15 K [mPa·s] | viscosity, 333.15 K [mPa·s]
x2 = 0 | 0.382 | 0.44 | 0.501 | 0.562 | 0.624 | 66 ± 10 | 44.7 ± 5.9 | 25.3 ± 3.5 | 20.6 ± 2.8 | 16.2 ± 2.3
x2 = 0.3 | 0.817 | 0.874 | 0.93 | 0.985 | 1.04 | 51.3 ± 1.5 | 40.7 ± 5.3 | 24.1 ± 3.3 | 19.6 ± 2.7 | 15 ± 2.1
x2 = 0.45 | 1.11 | 1.17 | 1.23 | 1.28 | 1.33 | 42.7 ± 5.6 | 31.4 ± 4.2 | 22.9 ± 3.1 | 18.2 ± 2.5 | 15.1 ± 2.1
x2 = 0.59 | 1.36 | 1.42 | 1.47 | 1.53 | 1.58 | 34.4 ± 4.5 | 27.5 ± 3.7 | 22.7 ± 3.1 | 18.3 ± 2.5 | 14.9 ± 2.1
x2 = 0.65 | 1.55 | 1.61 | 1.66 | 1.72 | 1.77 | 29.1 ± 3.9 | 24.2 ± 3.3 | 20.9 ± 2.8 | 17.6 ± 2.4 | 14.3 ± 2
x2 = 0.7 | 1.73 | 1.78 | 1.84 | 1.89 | 1.94 | 26.1 ± 3.5 | 22 ± 3 | 19.5 ± 2.7 | 16.4 ± 2.3 | 13 ± 1.9
x2 = 0.75 | 1.84 | 1.89 | 1.95 | 2 | 2.05 | 22.6 ± 3.1 | 18.7 ± 2.6 | 15.4 ± 2.2 | 12.2 ± 1.8 | 10.1 ± 1.5
x2 = 0.8 | 1.93 | 1.99 | 2.04 | 2.09 | 2.14 | 19.3 ± 2.6 | 15.6 ± 2.2 | 12.7 ± 1.8 | 11.1 ± 1.6 | 9.2 ± 1.4
